In patent US7365080B2, “Pharmaceutical compositions comprising thieno[2,3-c]pyridine derivatives and use thereof” (Rimonyx Pharmaceuticals Ltd., priority 2003, dated 2008):

Columns and labels:
[1] = test system: RPMI-8226, MOLT-4, CCR-CEM, K562, SR; assay: Leukemia cell lines (SRB): cell death; type: cell-based; details: 48 hours
Procedure: (§1) Each cell line (RPMI-8226 (Multiple Myeloma), MOLT-4 (Acute lymphoblastic leukemia), CCR-CEM (Human T Cell leukemia), K562 (Chronic myeloid leukemia), SR (Chronic myeloid leukemia) was pre-incubated on a microtiter plate (Monks A et al, J. Natl. Cancer Inst., 83:757-766, 1991). Inhibitor compounds were then added at different concentrations (10^−8-10^−4 Molar) and the culture incubated for 48 hours. A sulforhodamine B (SRB) protein assay was used to estimate cell viability or growth (Skehan P et al, J. Natl. Cancer Inst., 82:1107-1112, 1990). Compound no. 1 inhibited the growth of the cell lines RPMI-8226, MOLT4, CCR-CEM, K562 and SR to 100%, 100%, 100%, 100% and 93%, respectively. There was negligible cell death (less than 15%).

[2] = test system: MOLT-4 (Acute lymphoblastic leukemia); assay: Inhibition of leukemia cell growth (SRB); type: cell-based; details: MOLT4; 10^−8-10^−4 Molar, 48 hours
Procedure: as §1

[3] = test system: CCR-CEM (Human T Cell leukemia); assay: Inhibition of leukemia cell growth (SRB); type: cell-based; details: 10^−8-10^−4 Molar, 48 hours
Procedure: as §1

[4] = test system: SR (Chronic myeloid leukemia); assay: Inhibition of leukemia cell growth (SRB); type: cell-based; details: 10^−8-10^−4 Molar, 48 hours
Procedure: as §1

[5] = test system: K562 (Chronic myeloid leukemia); assay: Inhibition of leukemia cell growth (SRB); type: cell-based; details: 10^−8-10^−4 Molar, 48 hours
Procedure: as §1

[6] = test system: RPMI-8226 (Multiple Myeloma); assay: Inhibition of leukemia cell growth (SRB); type: cell-based; details: 10^−8-10^−4 Molar, 48 hours
Procedure: as §1

SF-268 (glioma) = assay: Inhibition of growth of cancer cell lines (alamar blue); type: cell-based; details: Homo sapiens, 48 hours
Procedure: (§2) Each cell line (MCF7 (Breast carcinoma), NCI-H460 (Non-small cell lung carcinoma), and SF-268 (glioma) was pre-incubated on a microtiter plate. Inhibitor compounds were then added at a concentration of 0.1 μM and the culture incubated for 48 hours. End-point determinations were made with alamar blue (Gray G D, Wickstrom E, Biotechniques 21(5) 780-782, 1996). Results for each compound are presented as the percent of growth of the treated cells as compared to the untreated cells. Compounds, which reduce the growth of any one of the cell lines to approximately 32% or less were considered suitable for further and more extensive study (Monks A et al, J. Natl. Cancer Inst., 83:757-766, 1991. Compound no. 1 inhibited the growth of the cell lines MCF7, NCI-H460, and SF-268 by 99%, 100% and 99%, respectively.

MCF7 (Breast carcinoma) = assay: as above; type: cell-based; details: Homo sapiens, 48 hours
Procedure: as §2

[7] = test system: NCI-H460 (Non-small cell lung carcinoma); assay: as above; type: cell-based; details: Homo sapiens, 48 hours
Procedure: as §2

[8] = test system: Human T-lymphocytes on human endothelial cells; assay: T-lymphocyte rolling on endothelial cells under shear flow; type: cell-based; details: for inhibition at 25 µM: Homo sapiens, high shear flow, read-out: inhibition of cell rolling; for % rolling: test compound (25 μM), shear flow
Procedure: Human T-lymphocytes were passed over a layer of human endothelial cells according to the method of Lawrence and Springer (Cell 65: 859-873, 1991). At high shear flow, migrating T-lymphocytes adhered transiently and intermittently to the endothelial cells as a consequence of HS-GAG-ECAM interaction. The resulting T-cell rolling was recorded by video camera and the number of rolling cells per defined area during a constant period of time was determined. Soluble heparin (competitor of cell surface GAGs) abolished T-cell rolling under high shear flow conditions. Compounds no. 1, 11 and 25, each at 25 μM, inhibited cell rolling by 90, 90 and 70%, respectively.

L-Selectin = biological target: T1, L-Selectin (Homo sapiens, UniProt P14151); assay: ELISA: inhibition of L-selectin/IgG binding to immobilized heparin (Heparin-BSA); details: L-Selectin binding to heparin
T1 construct: purchased Research and Development Systems 728-LS
T1 sequence (P14151 39-332 limits assumed): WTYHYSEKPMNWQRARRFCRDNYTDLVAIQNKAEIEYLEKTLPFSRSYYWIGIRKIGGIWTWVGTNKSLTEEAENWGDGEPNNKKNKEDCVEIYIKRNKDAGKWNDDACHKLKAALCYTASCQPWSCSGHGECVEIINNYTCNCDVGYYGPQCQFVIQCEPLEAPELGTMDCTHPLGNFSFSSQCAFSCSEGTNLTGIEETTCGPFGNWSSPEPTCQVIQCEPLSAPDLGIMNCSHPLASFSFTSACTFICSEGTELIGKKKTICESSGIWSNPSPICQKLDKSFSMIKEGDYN
Procedure: The inhibitory effect of the compounds of the present invention can be evaluated by several methods in vitro. One assay for measuring GAG-ECAM binding, exemplified herein below, detects the binding of L selectin/IgG to immobilized heparin. Another assay utilizes immobilized L-selectin, or L-selectin fused to protein domains other than IgG. The amount of bound L-selectin is determined by an ELISA assay using, for example, a monoclonal antibody raised against L-selectin, which is conjugated to horseradish peroxidase. […] The Dregg-55 antibody was also shown to inhibit L-selectin-dependent adhesion in vitro, neutrophil accumulation in vitro and inflammation in vivo (Co M. S. et al, Immunotechnology 493: 253-266, 1999).
An in vitro assay was used to assess the ability of test compounds according to formula I to inhibit the interactions of L-selectin with HS-GAGs. The assay was suitable for determining the concentration required for 50% inhibition (IC-50) for each specific compound. In the assay, the GAG used was heparin. Thus, porcine intestinal mucosa heparin conjugated to Bovine Serum Albumin (Heparin-BSA; Sigma Cat. No. H0403) at […] in Phosphate Buffered Saline (PBS; pH 6.5) was added to a 96 well polystyrene ELISA plate (NUNC Cat. No. 442404; 0.1 ml per well) and incubated Over Night (ON) at 4° C. Following the incubation, the plate was washed thoroughly, by immersion, with de-ionized water and PBS (pH 6.5). The ELISA plate was then blocked with BSA (ICN Cat. No.160069, 3%, 200 μl per well) for 1 hour at Room Temperature (RT). Following blocking, the plate was washed with de-ionized water, and then with PBS (pH 6.5) containing Tween 20 (Sigma Cat. No. P-1379, 0.05%). Compounds were synthesized or purchased from ChemDiv Labs (San Diego, Calif.), dissolved in DMSO, diluted in PBS and added to the wells at various concentrations in the range of 0.01 to 300 μM. Recombinant Human L-Selectin/IgG (Research and Development Systems Cat. No.728-LS) dissolved in PBS supplemented with BSA (0.1%) and calcium chloride (1 mM) was added to the ELISA plate (100 μl per well) and incubated for 60 minutes at RT with shaking. Following incubation, the plate was washed with de-ionized water and three times with PBS (pH 6.5) containing Tween 20. Anti-Human IgG Peroxidase Conjugate (1:5000; Sigma Product No. A8667) diluted in PBS supplemented with BSA (0.1%) and calcium chloride (1 mM) was added to the ELISA plate (100 μl per well) and incubated for 30 minutes at RT with shaking. The plate was then washed with de-ionized water and three times with PBS (pH 6.5) containing Tween 20. The peroxidase substrate cromogen, TMB (Dako Cat. No. S1599) was added (100 μl per well) to the ELISA plate and incubated at room temperature. After 15 minutes ELISA Stop Solution (hydrochloric acid 1N, sulfuric acid 3N) was added (200 μl per well) to stop the peroxidase catalyzed colorimetric reaction. The Optical Density (OD) of the samples was measured at 450 nm using an ELISA plate reader (Dynatech MR5000). Data were analyzed with Graphpad Prism software and IC-50 values were established. The P-selectin assay was carried out in a similar fashion, except that Recombinant Human P-Selectin/IgG (Research and Development Systems Cat.No.137-PS) was used.

Mice = assay: TNBS induced colitis (Inflammatory Bowel Disease model); type: in vivo, mouse
Procedure: Control mice (12 per group) were injected intraperitoneally (IP) with Test Compound (TC) Vehicle (Tween 80, 5%, 200 μl). […] The control and experimental mice were injected once per day for 7 successive days. […] 11 in the same experimental model. The compound was administered once a day for 7 days in a suspension with 0.5% methylcellulose per os. There were 12 mice per group and the control mice received 0.5% methylcellulose only. Compound no.

[9] = test system: immobilized heparin / L-selectin/IgG; assay: Assay 1: direct interaction with heparin, pre-incubation versus co-incubation with L-selectin; type: binding; details: compound 0.1-200 μM, 90 min, washed before L-selectin/IgG
Procedure: Inhibitor Compounds at final concentration 0.1-200 μM were incubated in the ELISA plate for 90 min, and then washed with incubation buffer. After washing, L-selectin/IgG was added to the wells pre-incubated with compounds. At the same time, in separate control wells, L-selectin was co-incubated with inhibitor Compounds for 90 min. Following the incubation, L-selectin bound to the plate was quantified by antibody conjugated to Horse Radish Peroxidase and OD measurement as performed as described in Example 5.

BALB/c mice = assay: Thioglycollate-induced leukocyte and neutrophil infiltration into mouse peritoneum; type: in vivo; details: intraperitoneal, 1 hour before thioglycollate; 3 hours
Procedure: The ability of compounds of the present invention to reduce leukocyte migration to sites of acute inflammation was evaluated in BALB/c mice using a thioglycolate-induced model of peritonitis. In this animal model, interactions of L- and P-selectin with HS-GAGs have been implicated in neutrophil infiltration (Nelson, R. M., 82:3253-3258, 1993; Xie, X. et al., J. Biol. Chem., 275:34818-34825, 2000).
BALB/c mice (6 weeks old, ˜20 g in weight, 15 mice/group) received intraperitoneal injection of an inhibitor compound in 0.2 ml DMSO/Tween/sterile saline 1 hour before administration of thioglycollate (Sigma). Control groups received vehicle and sham controls received no thioglycollate. Mice were injected intraperitoneally with 1 ml of 3% thioglycollate broth (Xie, X. et al., J. Biol. Chem., 275, 34818-34825, 2000). Mice were sacrificed after 3 hours, and the peritoneal cavities were ravaged with […] of ice-cold saline containing 2 mM EDTA to prevent clotting. After red blood cell lysis, leukocytes were counted in a hemocytometer. Neutrophils were counted after staining with Türck. Data was expressed as mean±SEM, and statistical analysis was performed by Student t test. A value of P<0.05 was taken to denote statistical significance.

Lewis rats = assay: Experimental Autoimmune Encephalomyelitis (MBP p87-99); type: in vivo, rat; details: intra-peritoneal once daily for 3 days, 10 and 35 mg/kg
Source text: In autoimmune conditions, T cells reactive to self-antigens escape elimination in the thymus and are activated in the periphery, where they can provoke damage in specific organs. EAE, a model of autoimmune disease that is induced in Lewis rats, bears many similarities to the human disease Multiple Sclerosis (MS). T cells found in brain lesions of MS patients have TCR junctional rearrangements that are identical to T cells found in the spinal cords of Lewis rats immunized with a peptide of myelin basic protein MBP p87-99. In addition, a major T and B cell response in MS patients is directed to MBP p87-99.
EAE is induced in rats by immunization with MBP p87-99. The inhibitor Compounds are administered once daily by intra-peritoneal injection for 3 consecutive days starting 1 day before the appearance of EAE symptoms (day 12 after EAE induction). The degree of clinical disease is scored as follows: 0=no signs; 1=loss of tail tonicity; 2=paralysis of hind limbs; 3=paralysis of all four limbs 4=quadriplegic animal in a moribund state.

| Compound | cell death [1] | growth inhibited to [2] [%] | growth inhibited to [3] [%] | growth inhibited to [4] [%] | growth inhibited to [5] [%] | growth inhibited to [6] [%] | inhibition at 0.1 µM (SF-268 (glioma)) [%] | inhibition at 0.1 µM (MCF7 (Breast carcinoma)) [%] | inhibition at 0.1 µM [7] [%] | inhibition at 25 µM [8] [%] | % rolling [8] [%] | IC50 (L-Selectin) [µM] | colonic damage (score 0 to 10), in words (Mice; IP once per day for 7 days, 10 and 35 mg/kg) | colonic damage (score 0 to 10), in words (Mice; per os once a day for 7 days, 3, 50 and 100 mg/kg) | level of inhibition of L-selectin binding to heparin, pre-incubation versus co-incubation [9] | leukocyte migration into the peritoneal cavity (in words) (BALB/c mice) | clinical signs of EAE (in words) (Lewis rats) |
| --- | --- | --- | --- | --- | --- | --- | --- | --- | --- | --- | --- | --- | --- | --- | --- | --- | --- |
| CC(C)N1CCc2c(sc(NC(=O)c3ccc(S(=O)(=O)N4CCc5ccccc5C4)cc3)c2C(N)=O)C1 [Compound 1, 2-[[(4-(3,4-dihydro-2(1H)-isoquinolinyl)sulfonyl]benzoyl]amino]-6-(1-methylethyl)-4,5,6,7-tetrahydrothieno[2,3-c]pyridine-3-carboxamide] | less than 15% | 100 | 100 | 93 | 100 | 100 | 99 | 99 | 100 | 90 | 30 | 13 | – | – | – | – | – |
| CCN1CCc2c(sc(NC(=O)c3ccc(S(=O)(=O)N(CC)CC)cc3)c2-c2nc3ccccc3s2)C1 [Compound 11, 2-[[4-[(diethylamino)sulfonyl]benzoyl]amino]-3-(benzothiazol-2-yl)-6-ethyl-4,5,6,7-tetrahydrothieno[2,3-c]pyridine] | – | – | – | – | – | – | – | – | – | 90 | <10 | 0.35 | significantly inhibited | significantly inhibited | same level of inhibition | inhibited efficiently | significantly inhibited |
| CC1(C)Cc2c(sc(NC(=O)c3ccc(S(=O)(=O)N4CCCc5ccccc54)cc3)c2C(N)=O)C(C)(C)N1 [Compound 25] | – | – | – | – | – | – | – | – | – | 70 | <10 | 12 | – | – | – | – | – |
